Reference: patent publication US20090197880A1 (Genelabs Technologies, Inc., priority 2007, published 2009)

Experiment: HCV replicon assay (luciferase) in ET (Huh-lucubineo-ET) cell line
Assay type: cell-based
Conditions: Hepatitis C virus; tested at 10 μM; inhibition of replication relative to no compound control; ET replicon cells, luciferase 48-72 hours; read-out: % inhition at 10 μM
Source text: A cell line, ET (Huh-lucubineo-ET) was used for screening of compounds, or pharmaceutically acceptable salts or solvates, described herein for inhibition of HCV RNA dependent RNA polymerase. The ET cell line was stably transfected with RNA transcripts harboring a I389luc-ubi-neo/NS3-3′/ET; replicon with firefly luciferase-ubiquitin-neomycin phosphotransferase fusion protein and EMCV-IRES driven NS3-5B polyprotein containing the cell culture adaptive mutations (E1202G; T1280I; K1846T) (Krieger at al, 2001 and unpublished). The ET cells were grown in DMEM, supplemented with 10% fetal calf serum, 2 mM Glutamine, Penicillin (100 IU/mL)/Streptomycin (100 μg/mL), 1× nonessential amino acids, and 250 μg/mL G418 (“Geneticin”). They were all available through Life Technologies (Bethesda, Md.). The cells were plated at 0.5−1.0×10^4 cells/well in the 96 well plates and incubated for 24 hrs before adding the test compounds. […] Luciferase activity was measured 48-72 hours later by adding a lysis buffer and the substrate (Catalog number Glo-lysis buffer E2661 and Bright-Glo luciferase system E2620 Promega, Madison, Wis.). Cells should not be too confluent during the assay. Percent inhibition of replication was plotted relative to no compound control. Under the same condition, cytotoxicity of the compounds was determined using cell proliferation reagent, WST-1 (Roche, Germany). The compounds showing antiviral activities, but no significant cytotoxicities were chosen to determine the EC50 and TC50, the effective concentration and toxic concentration at which 50% of the maximum inhibition is observed. For these determinations, 6 dilutions of each compound were used. Compounds were typically diluted 3 fold to span a concentration range of 250 fold. EC50 and similarly TC50 values were calculated by fitting % inhibition at each concentration to the following equation:
% inhibition=100%/[(EC50/[I])^b+1]
where b is Hill's coefficient.

Structure (SMILES)	inhibition at 10 µM [%]
CCCOc1ccc(-c2cc(Cn3cc4nc(-c5ccco5)nc-4cn3)on2)cc1 [Compound 144, 2-Furan-2-yl-5-[3-(4-propoxy-phenyl)-isoxazol-5-ylmethyl]-5H-imidazo[4,5-d]pyridazine]	92.2
CCCOc1ccc(-c2cc(Cn3cc4nc(-c5ccc(F)cc5)nc-4cn3)on2)cc1 [Compound 145, 2-(4-Fluoro-phenyl)-5-[3-(4-propoxy-phenyl)-isoxazol-5-ylmethyl]-5H-imidazo[4,5-d]pyridazine]	85.6
Fc1cccc(-c2nc3cnn(Cc4cc(-c5ccc(OCc6ccncc6)cc5)no4)cc-3n2)c1F [Compound 148, 2-(2,3-Difluoro-phenyl)-5-{3-[4-(pyridin-4-ylmethoxy)-phenyl]-isoxazol-5-ylmethyl}-H-imidazo[4,5-d]pyridazine]	100
Cc1nc(C)c(-c2cc(Cn3cc4nc(-c5cccc(F)c5F)nc-4cn3)on2)s1 [Compound 149, 2-(2,3-Difluoro-phenyl)-5-[3-(2,4-dimethyl-thiazol-5-yl)-isoxazol-5-ylmethyl]-5H-imidazo[4,5-d]pyridazine]	43.7
Fc1cccc(-c2nc3cnn(Cc4cc(-c5ccc(CN6CCCCC6)cc5)no4)cc-3n2)c1F [Compound 157, 2-(2,3-Difluoro-phenyl)-5-[3-(4-piperidin-1-ylmethyl-phenyl)-isoxazol-5-ylmethyl]-5H-imidazo[4,5-d]pyridazine]	9.99
Fc1cccc(-c2nc3cnn(Cc4cc(-c5ccc(OCCN6CCCC6)cc5)no4)cc-3n2)c1F [Compound 158, 2-(2,3-Difluoro-phenyl)-5-{3-[4-(2-pyrrolidin-1-yl-ethoxy)-phenyl]-isoxazol-5-ylmethyl}-5H-imidazo[4,5-d]pyridazine]	27.9
O=C(O)c1cccc(COc2ccc(-c3cc(Cn4cc5nc(-c6cccc(F)c6F)nc-5cn4)on3)cc2)c1 [Compound 159, 3-(4-{5-[2-(2,3-Difluoro-phenyl)-imidazo[4,5-d]pyridazin-5-ylmethyl]-isoxazol-3-yl}-phenoxymethyl)-benzoic Acid]	49.4
Fc1ccc(-c2cc(Cn3cc4nc(-c5cccc(F)c5F)nc-4cn3)on2)c(OC(F)(F)F)c1 [Compound 160, 2-(2,3-Difluoro-phenyl)-5-[3-(4-fluoro-2-trifluoromethoxy-phenyl)-isoxazol-5-ylmethyl]-5H-imidazo[4,5-d]pyridazine]	61.5
CN(C)CCOc1ccc(-c2cc(Cn3cc4nc(-c5cccc(F)c5F)nc-4cn3)on2)cc1 [Compound 161, [2-(4-{5-[2-(2,3-Difluoro-phenyl)-imidazo[4,5-d]pyridazin-5-ylmethyl]-isoxazol-3-yl}-phenoxy)-ethyl]-dimethyl-amine]	54.6
O=C(O)c1ccc(COc2ccc(-c3cc(Cn4cc5nc(-c6cccc(F)c6F)nc-5cn4)on3)cc2)cc1 [Compound 162, 4-(4-{5-[2-(2,3-Difluoro-phenyl)-imidazo[4,5-d]pyridazin-5-ylmethyl]-isoxazol-3-yl}-phenoxymethyl)-benzoic Acid]	66.9
COc1cc(-c2cc(Cn3cc4nc(-c5cccc(F)c5F)nc-4cn3)on2)ccc1OC(F)F [Compound 163, 5-[3-(4-Difluoromethoxy-3-methoxy-phenyl)-isoxazol-5-ylmethyl]-2-(2,3-difluoro-phenyl)-5H-imidazo[4,5-d]pyridazine]	62
Fc1cccc(-c2nc3cnn(Cc4cc(-c5cc(C(F)(F)F)cc(C(F)(F)F)c5)no4)cc-3n2)c1F [Compound 164, 5-[3-(3,5-Bis-trifluoromethyl-phenyl)-isoxazol-5-ylmethyl]-2-(2,3-difluoro-phenyl)-5H-imidazo[4,5-d]pyridazine]	90.1
Fc1cccc(-c2nc3cnn(Cc4cc(-c5ccc(OC(F)(F)F)c(Cl)c5)no4)cc-3n2)c1F [Compound 165, 5-[3-(3-Chloro-4-trifluoromethoxy-phenyl)-isoxazol-5-ylmethyl]-2-(2,3-difluoro-phenyl)-5H-imidazo[4,5-d]pyridazine]	79.4
COc1ccc(-c2cc(Cn3cc4nc(-c5cccc(F)c5F)nc-4cn3)on2)c(O)c1 [Compound 166, 2-{5-[2-(2,3-Difluoro-phenyl)-imidazo[4,5-d]pyridazin-5-ylmethyl]-isoxazol-3-yl}-5-methoxy-phenol]	70.7
Fc1cccc(-c2nc3cnn(Cc4cc(-c5ccc6c(c5)OC(F)(F)O6)no4)cc-3n2)c1F [Compound 167, 5-[3-(2,2-Difluoro-benzo[1,3]dioxol-5-yl)-isoxazol-5-ylmethyl]-2-(2,3-difluoro-phenyl)-5H-imidazo[4,5-d]pyridazine]	93.1
Fc1cc(-c2cc(Cn3cc4nc(-c5cccc(F)c5F)nc-4cn3)on2)ccc1OC(F)(F)F [Compound 168, 2-(2,3-Difluoro-phenyl)-5-[3-(3-fluoro-4-trifluoromethoxy-phenyl)-isoxazol-5-ylmethyl]-5H-imidazo[4,5-d]pyridazine]	99.2
Fc1cccc(-c2nc3cnn(Cc4cc(-c5ccc(OC(F)F)cc5OC(F)F)no4)cc-3n2)c1F [Compound 169, 5-[3-(2,4-Bis-difluoromethoxy-phenyl)-isoxazol-5-ylmethyl]-2-(2,3-difluoro-phenyl)-5H-imidazo[4,5-d]pyridazine]	83.6
Fc1cccc(-c2nc3cnn(Cc4cc(-c5ccc(OC(F)(F)C(F)C(F)(F)F)cc5)no4)cc-3n2)c1F (centres unmarked) [Compound 170, 2-(2,3-Difluoro-phenyl)-5-{3-[4-(1,1,2,3,3,3-hexafluoro-propoxy)-phenyl]-isoxazol-5-ylmethyl}-5H-imidazo[4,5-d]pyridazine]	97.9
COc1ccc(-c2cc(Cn3cc4nc(-c5cccc(F)c5F)nc-4cn3)on2)c(C)c1 [Compound 171, 2-(2,3-Difluoro-phenyl)-5-[3-(4-methoxy-2-methyl-phenyl)-isoxazol-5-ylmethyl]-5H-imidazo[4,5-d]pyridazine]	91.5
Fc1cccc(-c2nc3cnn(Cc4cc(-c5ccc(OCc6ccccn6)cc5)no4)cc-3n2)c1F [Compound 172, 2-(2,3-Difluoro-phenyl)-5-{3-[4-(pyridin-2-ylmethoxy)-phenyl]-isoxazol-5-ylmethyl}-5H-imidazo[4,5-d]pyridazine]	95.4
Fc1cccc(-c2nc3cnn(Cc4cc(-c5ccc(OCc6ccccc6)cc5)no4)cc-3n2)c1F [Compound 173, 5-[3-(4-Benzyloxy-phenyl)-isoxazol-5-ylmethyl]-2-(2,3-difluoro-phenyl)-5H-imidazo[4,5-d]pyridazine]	98.7
COc1ccc(-c2cc(Cn3cc4nc(-c5cccc(F)c5F)nc-4cn3)on2)c(C(F)(F)F)c1 [Compound 174, 2-(2,3-Difluoro-phenyl)-5-[3-(4-methoxy-2-trifluoromethyl-phenyl)-isoxazol-5-ylmethyl]-5H-imidazo[4,5-d]pyridazine]	99.7
Fc1cccc(-c2nc3cnn(Cc4cc(-c5ccc(OC(F)(F)C(F)F)cc5)no4)cc-3n2)c1F [Compound 175, 2-(2,3-Difluoro-phenyl)-5-{3-[4-(1,1,2,2-tetrafluoro-ethoxy)-phenyl]-isoxazol-5-ylmethyl}-5H-imidazo[4,5-d]pyridazine]	99.8
